# Results as given in paper PMC3177607 (Bioorganic & medicinal chemistry letters, 2008).
# pEC50: −log10 of the molar value. Where two headings read alike, the source gives them in different places.
# Tests used:
# M2 = target: T1, M2 (Homo sapiens, UniProt P08172); test: M2 functional activation; assay type: cell-based
# T1 sequence (P08172 1-466): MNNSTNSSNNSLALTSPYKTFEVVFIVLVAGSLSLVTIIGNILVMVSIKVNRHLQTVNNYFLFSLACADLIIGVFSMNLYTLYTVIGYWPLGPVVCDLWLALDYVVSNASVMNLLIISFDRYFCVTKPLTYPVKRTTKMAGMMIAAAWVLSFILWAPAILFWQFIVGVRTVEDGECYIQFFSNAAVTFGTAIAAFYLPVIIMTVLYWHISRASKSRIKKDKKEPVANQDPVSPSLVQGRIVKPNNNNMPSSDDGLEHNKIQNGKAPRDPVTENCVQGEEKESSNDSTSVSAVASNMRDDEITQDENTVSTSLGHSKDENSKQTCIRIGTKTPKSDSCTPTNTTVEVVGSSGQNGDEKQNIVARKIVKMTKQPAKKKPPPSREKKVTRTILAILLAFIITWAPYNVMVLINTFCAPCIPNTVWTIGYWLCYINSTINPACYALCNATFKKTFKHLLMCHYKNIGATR
# M4 = target: T2, M4 (Homo sapiens, UniProt P08173); test: M4 functional activation; assay type: cell-based
# T2 sequence (P08173 1-479): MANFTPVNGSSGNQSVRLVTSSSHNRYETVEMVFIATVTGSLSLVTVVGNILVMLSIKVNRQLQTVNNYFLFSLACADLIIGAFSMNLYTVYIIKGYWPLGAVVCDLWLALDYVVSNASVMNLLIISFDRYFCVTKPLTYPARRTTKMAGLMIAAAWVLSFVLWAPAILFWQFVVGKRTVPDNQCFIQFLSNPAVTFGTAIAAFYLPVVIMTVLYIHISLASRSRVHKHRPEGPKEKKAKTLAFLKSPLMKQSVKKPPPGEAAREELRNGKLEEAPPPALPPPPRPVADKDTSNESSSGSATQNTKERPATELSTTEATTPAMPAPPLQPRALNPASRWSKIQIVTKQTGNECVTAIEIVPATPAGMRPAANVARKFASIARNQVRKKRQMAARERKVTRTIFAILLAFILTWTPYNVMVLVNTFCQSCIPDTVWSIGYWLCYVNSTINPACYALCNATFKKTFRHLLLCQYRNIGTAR
# D2 [1] = target: T3, D2 (Homo sapiens, UniProt P14416); test: D2 inhibition; assay type: cell-based
# M1 = target: T4, M1 (Rattus norvegicus, UniProt P08482); test: 10 μM single point M1 activation screen; assay type: cell-based; conditions: in triplicate, relative to ACh, CCh and TBPB controls
# T4 sequence (P08482 1-460): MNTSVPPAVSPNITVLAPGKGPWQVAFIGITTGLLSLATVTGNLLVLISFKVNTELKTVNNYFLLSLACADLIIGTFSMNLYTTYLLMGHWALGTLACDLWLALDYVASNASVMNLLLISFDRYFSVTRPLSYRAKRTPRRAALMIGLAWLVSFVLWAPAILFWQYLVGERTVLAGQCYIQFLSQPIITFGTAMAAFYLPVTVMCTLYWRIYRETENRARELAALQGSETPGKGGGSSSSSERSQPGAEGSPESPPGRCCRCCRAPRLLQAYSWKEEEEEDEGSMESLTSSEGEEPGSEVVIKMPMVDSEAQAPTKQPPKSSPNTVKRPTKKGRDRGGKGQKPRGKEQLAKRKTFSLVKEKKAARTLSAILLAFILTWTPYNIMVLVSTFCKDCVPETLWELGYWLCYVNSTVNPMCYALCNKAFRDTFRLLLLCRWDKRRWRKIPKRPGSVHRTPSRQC
# M3 = M3 (Homo sapiens, UniProt P20309); test: M3 functional activation; assay type: cell-based
# M5 = target: T5, M5 (Homo sapiens, UniProt P08912); test: M5 functional activation; assay type: cell-based
# T5 sequence (P08912 1-532): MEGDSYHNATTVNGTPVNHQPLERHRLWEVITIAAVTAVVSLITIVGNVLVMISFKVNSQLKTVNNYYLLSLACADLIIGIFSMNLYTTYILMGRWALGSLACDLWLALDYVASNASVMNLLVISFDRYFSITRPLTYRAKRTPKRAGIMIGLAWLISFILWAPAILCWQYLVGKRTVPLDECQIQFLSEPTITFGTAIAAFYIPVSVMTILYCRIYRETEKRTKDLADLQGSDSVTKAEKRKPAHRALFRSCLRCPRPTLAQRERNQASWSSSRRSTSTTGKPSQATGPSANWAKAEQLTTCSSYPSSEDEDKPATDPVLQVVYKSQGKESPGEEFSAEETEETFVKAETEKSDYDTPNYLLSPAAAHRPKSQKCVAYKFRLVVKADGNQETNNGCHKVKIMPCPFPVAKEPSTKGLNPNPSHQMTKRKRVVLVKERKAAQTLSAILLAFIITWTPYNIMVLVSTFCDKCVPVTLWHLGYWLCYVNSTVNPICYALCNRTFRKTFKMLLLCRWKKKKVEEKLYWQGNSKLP
# D2 [2] = target: T3, D2; conditions: cited from earlier work
# T3 sequence (P14416 whole entry): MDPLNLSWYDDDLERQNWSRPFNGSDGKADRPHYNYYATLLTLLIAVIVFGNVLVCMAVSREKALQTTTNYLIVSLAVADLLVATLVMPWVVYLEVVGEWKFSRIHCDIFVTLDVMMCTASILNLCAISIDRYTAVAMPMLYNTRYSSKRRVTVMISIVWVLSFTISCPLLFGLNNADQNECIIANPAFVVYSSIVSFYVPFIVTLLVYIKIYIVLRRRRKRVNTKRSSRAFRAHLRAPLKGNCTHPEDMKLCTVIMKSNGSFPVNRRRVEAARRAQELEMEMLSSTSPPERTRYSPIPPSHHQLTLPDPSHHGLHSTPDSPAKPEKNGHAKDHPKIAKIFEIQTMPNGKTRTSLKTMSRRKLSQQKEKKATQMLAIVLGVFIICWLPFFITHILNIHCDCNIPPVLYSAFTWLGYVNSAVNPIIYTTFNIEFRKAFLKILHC
# Sequence of M3 (P20309 whole entry): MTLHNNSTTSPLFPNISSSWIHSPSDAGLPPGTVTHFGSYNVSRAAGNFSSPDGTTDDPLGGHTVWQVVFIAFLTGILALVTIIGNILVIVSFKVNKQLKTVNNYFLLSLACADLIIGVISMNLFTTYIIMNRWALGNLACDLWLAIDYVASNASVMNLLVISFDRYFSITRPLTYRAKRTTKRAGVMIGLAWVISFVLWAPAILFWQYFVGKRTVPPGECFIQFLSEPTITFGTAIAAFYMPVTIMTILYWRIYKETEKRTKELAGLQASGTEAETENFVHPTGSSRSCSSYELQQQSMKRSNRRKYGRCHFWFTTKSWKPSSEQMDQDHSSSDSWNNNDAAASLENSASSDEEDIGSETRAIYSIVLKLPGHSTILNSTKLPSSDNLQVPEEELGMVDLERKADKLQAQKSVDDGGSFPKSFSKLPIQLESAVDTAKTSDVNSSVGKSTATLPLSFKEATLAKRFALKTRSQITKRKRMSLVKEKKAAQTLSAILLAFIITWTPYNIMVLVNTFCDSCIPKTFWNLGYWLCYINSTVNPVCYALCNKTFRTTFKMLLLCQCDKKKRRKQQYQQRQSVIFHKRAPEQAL
smiles,measurement,setting,value
O=c1[nH]c2ccccc2n1C1CCN(C2CCN(S(=O)(=O)c3ccccc3)CC2)CC1 [9c],pEC50,M2,< 4.52
same,pEC50,M4,< 4.52
same,inhibition at 10 µM,D2 [1]; read-out: inhibition of D2,~10%
same,"M1 activation, single point screen",M1,activated M1
same,pEC50,M3,< 4.52
same,pEC50,M5,< 4.52
O=C(Nc1cccc(SC(F)(F)F)c1)N1CCC(N2CCC(n3c(=O)[nH]c4ccccc43)CC2)CC1 [10i],"M1 activation, single point screen",M1,activated M1
O=c1[nH]c2ccc(F)cc2n1C1CCN(C2CCN(S(=O)(=O)c3ccccc3)CC2)CC1 [14c],inhibition of D2,D2 [1]; at concentrations up to 10 μM,did not inhibit
O=c1[nH]c2ccccc2n1C1CCN(C2CCN(Cc3ccccc3C(F)(F)F)CC2)CC1 [compound 2],D2 inhibitory activity,D2 [2],no D2 inhibitory activity
CCOC(=O)N1CCC(N2CCC(n3c(=O)[nH]c4ccccc43)CC2)CC1 [ethyl carbamate congener],% CCh Max at M2,M2,80.6%
same,pEC50,M2; read-out: M2 EC50,7.92
same,% CCh Max at M4,M4,96.9%
same,pEC50,M4; read-out: M4 EC50,8.04
same,% CCh Max at M5,M5,50.8%
same,pEC50,M5; read-out: M5 EC50,7.46
